Experiments:
[1] = tested on: PIP3; experiment: CFP/YFP emission ratio time course after PDGF stimulation of probe-expressing CHO-PDGFR cells; type: cell-based, Chinese hamster; settings: for PIP3 in plasma membranes and endomembranes: stimulation by other peptide ligands instead of PDGF
Method: Ovarian cells of Chinese hamster (CHO) were cultured in Ham's F-12 medium supplemented with 10% fetal calf serum (FCS) at 37° C. in 5% CO2. The resulting CHO-PDGFR cells were plated onto glass-bottomed dishes, each of Fllip-pm, Fllip-pmR284C, Fllip-del and Fllip-em expression vectors were transfected with LipofectAMINE2000 reagent (manufactured by Life Technology) and left for 24 hours at 37° C. in 5% CO2.
After serum starvation with serum-free incubating medium, the medium was replaced with a Hank's balanced salt solution. Then, in accordance with a method already reported by the inventors (such as Non-Patent Documents 12 and 13), the cells were imaged at room temperature on a Carl Zeiss Axiovert 135 microscope with a cooled CCD camera, MicroMAX (Roper Scientific lnc, Tucson, Ariz.), controlled by MetaFluor. (Universal Imaging, West Chester, Pa.). The fluorescence images were obtained through 480±15 nm and 535±12.5 nm filters with a 40× oil immersion objective (Carl Zeiss, Jena, Germany). YFP images were detected by a confocal laser scanning microscope LSM 510 (Carl Zeiss).
Response of Fllip-pm to PIP3 produced by physiological stimulation was examined.
Fllip-pm was expressed in CHO-PDGFR cells stably expressing platelet-derived growth factor receptor (PDGFR). PDGF treatment promotes dimerization of PDGFR that results in phosphorylation of multiple tyrosine residues of PDGFR and its activation. PI3K is recruited to these tyrosine phosphorylation sites through its Src-homology 2 (SH2) domain, resulting in its activation (Schlessinger, J. (2000), Cell, 103, 211-225).
The time course of CFP/YFP-emission ratio when PDGF (50 ng/mL) was added to a cell expressing Fllip-pm at plasma membrane are shown in FIG. 6 and FIG. 7.
According to the same method as in Examples 4 and 5, response of Fllip-pmR284C, of which PHD was mutated not to bind to PIP3, was examined.
Fllip-em was expressed in the CHO-PDGFR cells by the same method as in Example 2. After that, the cells were stimulated with PDGF by the same method as in Example 5 and the time course of CFP/YFP emission ratio was measured.

[2] = tested on: C1B domain derived from PKC; experiment: Response of DAG-fllip-pm and DAG-fllip-em to phorbol ester (PMA); type: cell-based; settings: phorbol ester (PMA) added
Method: It has been known that C1B domain derived from PKC is selectively bound to DAG. Therefore, this domain was selected as an LBD and the lipid second messenger detecting- and quantifying-probe (hereinafter, referred to as DAG-Fllip) was prepared. Localization domains to the plasma membrane and endomembranes are linked with DAG-fllip to prepare DAG-fllip-pm and DAG-fllip-em. After that, in order to confirm whether the DAG-fllip-pm and the DAG-fllip-em respond to DAG, the DAG-fllip-pm and the DAG-fllip-em were evaluated by using phorbol ester (PMA), which is a substance having a membrane permeability, and specifically bound to C1B domain.

[3] = PDGF 50 ng/mL, Fllip-pm at plasma membrane of CHO-PDGFR cells

## insulin: other peptide ligand
[1]
  PIP3 in plasma membranes and endomembranes: induced the PIP3 increase

## epidermal growth factors: other peptide ligand
[1]
  PIP3 in plasma membranes and endomembranes: induced the PIP3 increase

## CCCCCCCCCCCCCC(=O)O[C@@H]1[C@@H](C)[C@@]2(O)[C@@H](C=C(CO)C[C@]3(O)C(=O)C(C)=C[C@@H]23)[C@@H]2C(C)(C)[C@]12OC(C)=O [phorbol ester]
[2]
  fluorescence intensity ratio (CFP/YFP) of DAG-fllip-em: decreased
  fluorescence intensity ratio (CFP/YFP) of DAG-fllip-pm: decreased

## PDGF
[1]; [3]
  CFP/YFP emission ratio: decreased immediately
  time for CFP/YFP emission ratio to reach a plateau: 300 s
[1]; upon PDGF stimulation
  extent of PIP3 increase in the endomembranes relative to that in the plasma membrane: twice to three times
